Measured values taken from ChEMBL document CHEMBL3600300, “Cytotoxic triterpene saponins from Cercodemas anceps” (Bioorg Med Chem Lett, 2015).

Columns and labels:
Type in all cases: functional, cell-based
LNCaP = assay: Cytotoxicity against human LNCAP cells after 48 hrs by SRB assay
MCF7 = assay: Cytotoxicity against human MCF7 cells after 48 hrs by SRB assay; settings: MCF7, 48 h
KB = assay: Cytotoxicity against human KB cells after 48 hrs by SRB assay
HepG2 = assay: Cytotoxicity against human HepG2 cells after 48 hrs by SRB assay; settings: HepG2, 48 h
SK-MEL-2 = assay: Cytotoxicity against human SK-MEL-2 cells after 48 hrs by SRB assay; settings: SK-MEL-2, 48 h

Row | SMILES | IC50 (LNCaP) [µM] | IC50 (MCF7) [µM] | IC50 (KB) [µM] | IC50 (HepG2) [µM] | IC50 (SK-MEL-2) [µM]
1 | CO[C@@H]1[C@@H](O)[C@H](O[C@@H]2[C@@H](O)[C@H](O[C@H]3[C@H](O)[C@@H](O[C@@H]4OC[C@@H](O)[C@H](O)[C@H]4O)[C@H](O[C@H]4[C@H](O[C@H]5CC[C@]6(C)C7=CC[C@]89C(=O)O[C@@](C)(CCCC(C)C)[C@H]8C(=O)C[C@@]9(C)[C@@H]7CC[C@H]6C5(C)C)OC[C@@H](OS(=O)(=O)O)[C@@H]4O)O[C@@H]3C)O[C@H](COS(=O)(=O)O)[C@H]2O)O[C@H](CO)[C@H]1O | 0.17 | 0.13 | 0.03 | 0.07 | 0.11
2 | C=C(C)CCC[C@]1(C)OC(=O)[C@]23CC=C4[C@@H](CC[C@H]5C(C)(C)[C@@H](O[C@@H]6OC[C@@H](OS(=O)(=O)O)[C@H](O)[C@H]6O[C@@H]6O[C@H](C)[C@@H](O[C@@H]7O[C@H](COS(=O)(=O)O)[C@@H](O)[C@H](O[C@@H]8O[C@H](CO)[C@@H](O)[C@H](OC)[C@H]8O)[C@H]7O)[C@H](O)[C@H]6O[C@@H]6OC[C@@H](O)[C@H](O)[C@H]6O)CC[C@]45C)[C@]2(C)CC(=O)[C@@H]31 | 0.23 | 0.2 | 0.04 | 0.07 | 0.24
3 | CC(C)CCC[C@]1(C)OC(=O)[C@]23CC=C4[C@@H](CC[C@H]5C(C)(C)[C@@H](O[C@@H]6OC[C@@H](OS(=O)(=O)O)[C@H](O)[C@H]6O[C@H]6O[C@H](C)[C@H](O[C@@H]7O[C@H](COS(=O)(=O)O)[C@@H](O)[C@H](O)[C@H]7O)[C@H](O)[C@H]6O)CC[C@]45C)[C@]2(C)CC(=O)[C@@H]31 | 1.19 | 0.56 | 0.25 | 0.97 | 1.47
4 | C=C(C)CCC[C@]1(C)OC(=O)[C@]23CC=C4[C@@H](CC[C@H]5C(C)(C)[C@@H](O[C@@H]6OC[C@@H](OS(=O)(=O)O)[C@H](O)[C@H]6O[C@H]6O[C@H](C)[C@H](O[C@@H]7O[C@H](COS(=O)(=O)O)[C@@H](O)[C@H](O)[C@H]7O)[C@H](O)[C@H]6O)CC[C@]45C)[C@]2(C)CC(=O)[C@@H]31 | 1.92 | 1.03 | 0.32 | 4.69 | 1.25
5 | CC(C)CCC[C@]1(C)OC(=O)[C@]23CC=C4[C@@H](CC[C@H]5C(C)(C)[C@@H](O[C@@H]6OC[C@@H](OS(=O)(=O)O)[C@H](O)[C@H]6O[C@H]6O[C@H](C)[C@@H](O)[C@H](O)[C@H]6O)CC[C@]45C)[C@]2(C)CC(=O)[C@@H]31 | 2.11 | 1.09 | 0.48 | 2.05 | 4.09
6 | C=C(C)CCC[C@]1(C)OC(=O)[C@]23CC=C4[C@@H](CC[C@H]5C(C)(C)[C@@H](O[C@@H]6OC[C@@H](OS(=O)(=O)O)[C@H](O)[C@H]6O[C@H]6O[C@H](C)[C@@H](O)[C@H](O)[C@H]6O)CC[C@]45C)[C@]2(C)CC(=O)[C@@H]31 | 3.3 | 1.33 | 1.37 | 6.08 | 7.36
7 | CO[C@@H]1[C@@H](O)[C@H](O[C@@H]2[C@@H](O)[C@H](O[C@H]3[C@H](O)[C@@H](O)[C@H](O[C@H]4[C@H](O[C@H]5CC[C@]6(C)[C@H]7CC[C@]89C(=O)O[C@@](C)(CCC=C(C)C)[C@H]8[C@@H](OC(C)=O)C[C@@]9(C)C7=CC[C@H]6C5(C)C)OC[C@@H](OS(=O)(=O)O)[C@@H]4O)O[C@@H]3C)OC[C@H]2O)O[C@H](CO)[C@H]1O | 1.19 | 0.37 | 0.11 | 1.16 | 0.85
8 | Cc1c2ccncc2c(C)c2c1[nH]c1ccccc12 [ELLIPTECINE] | 1.99 | 1.95 | 2.07 | 1.71 | 2.15
